Measurements as given in PubChem BioAssay (NCI).
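Briefly, cells in 96-well plates were exposed to five compound concentrations for 48 h, and endpoints were estimated by linear interpolation. At the TGI there is no net growth.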

What was measured:
Assay in all cases: inhibition of tumour cell growth, NCI panel, 48 h
[1] = system: NCI-H226 lung
[2] = system: SK-MEL-2 melanoma
[3] = system: HCC-2998 colon
[4] = system: UO-31 renal
[5] = system: MOLT-4 leukemia
[6] = system: SK-MEL-28 melanoma
[7] = system: OVCAR-4 ovarian
[8] = system: LOX IMVI melanoma
[9] = system: NCI-H460 lung
[10] = system: MCF7 breast

Structure (SMILES)	TGI [1] [µM]	TGI [2] [µM]	TGI [3] [µM]	TGI [4] [µM]	TGI [5] [µM]	TGI [6] [µM]	TGI [7] [µM]	TGI [8] [µM]	TGI [9] [µM]	TGI [10] [µM]
CN1C/C(=C\c2cccs2)C2=NC(=S)NC(c3cccs3)C2C1 (stereo not given)	> 100	> 100	> 100	> 100	92	> 100	> 100	> 100	> 100	> 100
COc1cc(/C=C2/SC(c3ccccc3)N(c3ccc(NC(C)=O)cc3)C2=O)cc(OC)c1OC (stereo not given)	> 100	> 100	> 100	> 100	> 100	> 100	> 100	> 100	> 100	> 100
COc1c2cc([N+](=O)[O-])cc1CNC(=O)CN1CCOCCOCCN(CCOCCOCC1)CC(=O)NC2	> 100	> 100	> 100	> 100	> 100	> 100	> 100	> 100	> 100	> 100
Clc1ccc(-c2ccc(-c3nnc(CCc4nnc(-c5ccc(-c6ccc(Cl)cc6)o5)o4)o3)o2)cc1	> 100	> 100	> 100	> 100	> 45.3	> 100	> 100	> 100	> 100	> 100
Cc1ccc(S(=O)(=O)c2scc(-c3ccccc3)c2C)cc1	> 100	> 100	> 100	> 100	> 100	> 100	> 100	> 100	> 100	> 100
CCOC(=O)c1cnc(-n2[nH]c(C)c(CCO)c2=O)[nH]c1=O	> 100	> 100	> 100	> 100	> 100	> 100	> 100	> 100	> 100	> 100
C=C(C)[C@@H]1CC[C@]2(C(=O)O)CC[C@]3(C)[C@H](CC[C@@H]4[C@@]5(C)CC(=O)C(C)(C)[C@@H]5CC[C@]43C)[C@@H]12	> 25	9.71	12	16.4	14.5	> 25	> 25	> 25	10.7	> 25
O=C1C(N2CCCC2)=CC(=O)c2c(O)c(N3CCCC3)c(Cl)c(O)c21	> 10	> 10	> 10	> 10	> 10	> 10	> 10	> 10	> 10	> 10
OCC1OC(c2scc3c(=S)nc[nH]c23)C(O)C1O (stereo not given)	85.4	> 65.6	> 97.2	> 100	48.4	> 100	38.1	> 82.5	> 100	27.3
Cc1[nH]c2ncn(/N=C/c3ccccc3O)c(=N)c2c1Cc1ccccc1	> 100	83.9	88.7	> 100	> 100	> 100	> 100	> 100	> 100	> 100
O=c1[nH]c(=O)n(C2CC(O)C(CO)O2)cc1I (stereo not given)	> 100	> 100	> 100	> 100	> 100	> 100	> 100	> 100	> 100	> 100
Clc1ccc2c(SCC3CO3)c3ccccc3nc2c1 (stereo not given)	> 100	8.11	9.55	3.34	4.3	21.1	21.1	> 100	20.9	3.19
O=S(=O)(Oc1ccc2oc3ccccc3c2c1-c1c(OS(=O)(=O)C(F)(F)F)ccc2oc3ccccc3c12)C(F)(F)F	> 100	> 100	> 100	> 100	> 100	> 100	> 100	> 100	> 100	> 100
O=C(Cc1ccccc1)NCCc1ccc(O)c(O)c1	> 100	80.1	> 100	> 100	> 100	> 100	28	> 100	> 100	> 100
O=C1c2c(F)c(F)c(F)c(F)c2SC2=NCCN12	34.5	6.52	28	22.5	6.7	22.8	8.91	3.07	17.5	23.5
CCOc1cc2c(cc1O)/C(=N\N)C[C@@H]1[C@@H]2CC[C@]2(C)[C@@H](O)CC[C@@H]12	29.2	99.5	12.8	> 100	> 100	34.2	> 100	> 41.5	> 33.6	> 100
COC(=O)c1cn(CCCC(=O)O)nn1	> 100	> 100	> 100	> 100	> 100	> 100	> 100	> 100	> 100	> 100
CCOC(=O)CCCn1nnc(C(=O)OCC)c1C(=O)OCC	> 100	> 100	> 100	> 100	> 100	> 100	> 100	> 100	> 100	> 100
C=CCC1(O)c2ccccc2C(=O)c2c(O)ccc(O)c21 (stereo not given)	> 43	9.98	15	52.6	> 58	> 100	> 82.5	> 50.9	18.3	26.3
